The text below walks through data of publication PMC5218480 (PLoS ONE, 2017).

Each structure is given as a SMILES string.

This experiment relates to MV-4-11 cells. Description: Gene expression microarray analysis (Affymetrix PrimeView) and GSEA. The class given is cell-based, human. The arrangement: RFU PODN (11730768_x_at) / Fold change /veh PODN (11730768_x_at) / RFU LINC00158 (11744669_a_at) / Fold change /veh LINC00158 (11744669_a_at) / RFU DUSP10 (11751237_a_at) / Fold change /veh DUSP10 (11751237_a_at) / RFU ID3 (11757404_x_at) / Fold change /veh ID3 (11757404_x_at) / RFU PLEKHG5 (11737974_s_at) / Fold change /veh PLEKHG5 (11737974_s_at) / RFU LRRC4B (11730491_at) / Fold change /veh LRRC4B (11730491_at) / RFU GIMAP4 (11747438_a_at) / Fold change /veh GIMAP4 (11747438_a_at) / RFU KRT8 (11758183_x_at) / Fold change /veh KRT8 (11758183_x_at) / RFU CNN1 (11734310_a_at) / Fold change /veh CNN1 (11734310_a_at) / RFU VPS37D (11726825_at) / Fold change /veh VPS37D (11726825_at) / RFU C10orf10 (11716522_x_at) / Fold change /veh C10orf10 (11716522_x_at) / RFU KIR2DL2 /// KIR2DL4 /// KIR2DL5A /// KIR2DL5B /// KIR2DS1 /// KIR2DS2 /// KIR2DS3 /// KIR2DS4 /// KIR3DL3 /// KIR3DL3 /// KIR3DS1 (11738374_at) / Fold change /veh KIR2DL2 /// KIR2DL4 /// KIR2DL5A /// KIR2DL5B /// KIR2DS1 /// KIR2DS2 /// KIR2DS3 /// KIR2DS4 /// KIR3DL3 /// KIR3DL3 /// KIR3DS1 (11738374_at) / RFU C1QL1 (11718748_at) / Fold change /veh C1QL1 (11718748_at) / RFU TMPRSS4 (11747572_a_at) / Fold change /veh TMPRSS4 (11747572_a_at) / RFU HAMP (11756126_x_at) / Fold change /veh HAMP (11756126_x_at) / RFU RNFT2 (11725882_a_at) / Fold change /veh RNFT2 (11725882_a_at) / RFU NR4A2 (11747474_a_at) / Fold change /veh NR4A2 (11747474_a_at) / RFU ABCC12 (11746883_a_at) / Fold change /veh ABCC12 (11746883_a_at) / RFU TMEM136 (11760407_x_at) / Fold change /veh TMEM136 (11760407_x_at) / RFU CLDN22 /// WWC2 (11732394_at) / Fold change /veh CLDN22 /// WWC2 (11732394_at) / RFU HLA-DPB1 (11760878_x_at) / Fold change /veh HLA-DPB1 (11760878_x_at) / RFU SPINT1 (11716480_a_at) / Fold change /veh SPINT1 (11716480_a_at) / RFU GAP43 (11754022_s_at) / Fold change /veh GAP43 (11754022_s_at) / RFU A4GNT (11735810_at) / Fold change /veh A4GNT (11735810_at) / RFU PRB3 (11715151_x_at) / Fold change /veh PRB3 (11715151_x_at) / RFU TUBB4B (11761932_at) / Fold change /veh TUBB4B (11761932_at) / RFU CAPN14 (11732068_a_at) / Fold change /veh CAPN14 (11732068_a_at) / RFU TMCC2 (11721928_a_at) / Fold change /veh TMCC2 (11721928_a_at) / RFU IRGQ (11745062_a_at) / Fold change /veh IRGQ (11745062_a_at) / RFU FAM174B (11720279_a_at) / Fold change /veh FAM174B (11720279_a_at) / RFU TMPRSS4 (11748680_a_at) / Fold change /veh TMPRSS4 (11748680_a_at) / RFU FAM212B (11763350_a_at) / Fold change /veh FAM212B (11763350_a_at) / RFU PLEKHG5 (11743358_a_at) / Fold change /veh PLEKHG5 (11743358_a_at) / RFU ZSCAN30 (11745921_a_at) / Fold change /veh ZSCAN30 (11745921_a_at) / RFU CMKLR1 (11741424_a_at) / Fold change /veh CMKLR1 (11741424_a_at) / RFU LOC101060620 /// MAPK8IP1 (11723275_at) / Fold change /veh LOC101060620 /// MAPK8IP1 (11723275_at) / RFU SPTSSB (11747773_x_at) / Fold change /veh SPTSSB (11747773_x_at) / RFU PRSS12 (11739890_at) / Fold change /veh PRSS12 (11739890_at) / RFU BIN1 (11741810_x_at) / Fold change /veh BIN1 (11741810_x_at) / RFU WNT11 (11732464_a_at) / Fold change /veh WNT11 (11732464_a_at) / RFU C10orf10 (11716521_a_at) / Fold change /veh C10orf10 (11716521_a_at) / RFU C5orf56 (11738089_at) / Fold change /veh C5orf56 (11738089_at) / RFU CYB561 (11721691_x_at) / Fold change /veh CYB561 (11721691_x_at) / RFU ANKRD19P (11752326_a_at) / Fold change /veh ANKRD19P (11752326_a_at) / RFU OR2T12 /// OR2T33 /// OR2T8 (11738714_s_at) / Fold change /veh OR2T12 /// OR2T33 /// OR2T8 (11738714_s_at) / RFU VCAN (11748164_a_at) / Fold change /veh VCAN (11748164_a_at) / RFU JSRP1 (11732532_at) / Fold change /veh JSRP1 (11732532_at) / RFU KRTAP10-11 (11738290_x_at) / Fold change /veh KRTAP10-11 (11738290_x_at) / RFU MYO3A (11730013_a_at) / Fold change /veh MYO3A (11730013_a_at) / RFU EBF3 (11725865_a_at) / Fold change /veh EBF3 (11725865_a_at) / RFU CAMK2N1 (11719241_x_at) / Fold change /veh CAMK2N1 (11719241_x_at) / RFU C5orf56 (11738088_a_at) / Fold change /veh C5orf56 (11738088_a_at) / RFU OLFML3 (11715873_a_at) / Fold change /veh OLFML3 (11715873_a_at) / RFU LOC100653217 /// NTM (11731650_a_at) / Fold change /veh LOC100653217 /// NTM (11731650_a_at) / RFU MAPK11 (11762145_a_at) / Fold change /veh MAPK11 (11762145_a_at) / RFU FIZ1 (11724087_x_at) / Fold change /veh FIZ1 (11724087_x_at) / RFU OASL (11726364_x_at) / Fold change /veh OASL (11726364_x_at) / RFU SOX15 (11748057_x_at) / Fold change /veh SOX15 (11748057_x_at) / RFU CD79A (11719716_a_at) / Fold change /veh CD79A (11719716_a_at) / RFU HIST1H1D (11736915_at) / Fold change /veh HIST1H1D (11736915_at) / RFU CASKIN2 (11723855_a_at) / Fold change /veh CASKIN2 (11723855_a_at) / RFU LOC730098 (11760151_x_at) / Fold change /veh LOC730098 (11760151_x_at) / RFU OR4N2 (11742367_at) / Fold change /veh OR4N2 (11742367_at) / RFU PRRT2 (11749266_a_at) / Fold change /veh PRRT2 (11749266_a_at) / RFU SNX32 (11753110_a_at) / Fold change /veh SNX32 (11753110_a_at) / RFU CDHR5 (11726645_a_at) / Fold change /veh CDHR5 (11726645_a_at) / RFU RCAN1 (11760418_a_at) / Fold change /veh RCAN1 (11760418_a_at) / RFU FAM167A (11723789_a_at) / Fold change /veh FAM167A (11723789_a_at) / RFU FAM26E (11764081_at) / Fold change /veh FAM26E (11764081_at) / RFU ISYNA1 (11749810_s_at) / Fold change /veh ISYNA1 (11749810_s_at) / RFU ACY1 (11761880_at) / Fold change /veh ACY1 (11761880_at) / RFU 11764098_at / Fold change /veh 11764098_at / RFU SAMD14 (11745864_x_at) / Fold change /veh SAMD14 (11745864_x_at) / RFU NPB (11741838_a_at) / Fold change /veh NPB (11741838_a_at) / RFU TMPRSS6 (11731388_a_at) / Fold change /veh TMPRSS6 (11731388_a_at) / RFU KRTAP10-2 (11738614_at) / Fold change /veh KRTAP10-2 (11738614_at) / RFU ARHGAP8 /// PRR5-ARHGAP8 (11727945_x_at) / Fold change /veh ARHGAP8 /// PRR5-ARHGAP8 (11727945_x_at) / RFU KRTAP5-7 /// NADSYN1 (11734609_at) / Fold change /veh KRTAP5-7 /// NADSYN1 (11734609_at) / RFU RASL12 (11751679_a_at) / Fold change /veh RASL12 (11751679_a_at) / RFU CDKN2B (11736163_a_at) / Fold change /veh CDKN2B (11736163_a_at) / RFU PRF1 (11729649_at) / Fold change /veh PRF1 (11729649_at) / RFU, ZNF638 /// ZNF638-IT1 / Fold change vs veh, ZNF638 /// ZNF638-IT1 / RFU, PANK3 / Fold change vs veh, PANK3 / RFU, SH3YL1 / Fold change vs veh, SH3YL1 / RFU, ZEB2 / Fold change vs veh, ZEB2 / RFU, NRIP1 / Fold change vs veh, NRIP1 / RFU, PTTG1IP / Fold change vs veh, PTTG1IP / RFU, CAPN2 / Fold change vs veh, CAPN2 / RFU, MED14 / Fold change vs veh, MED14 / RFU, SNORA58 / Fold change vs veh, SNORA58 / RFU, C1orf63 / Fold change vs veh, C1orf63 / RFU, LRRFIP1 / Fold change vs veh, LRRFIP1 / RFU, NDUFAF7 / Fold change vs veh, NDUFAF7 / RFU, SLC12A2 / Fold change vs veh, SLC12A2 / RFU, IBTK / Fold change vs veh, IBTK / RFU, ESF1 / Fold change vs veh, ESF1 / Fold change vs veh, TMEM50B / RFU, TAOK1 / Fold change vs veh, TAOK1 / RFU, ACBD3 / Fold change vs veh, ACBD3 / RFU, TMA16 / Fold change vs veh, TMA16 / RFU, RWDD3 / Fold change vs veh, RWDD3 / RFU, BCAT1 / Fold change vs veh, BCAT1 / RFU, EDEM3 / Fold change vs veh, EDEM3 / RFU, TMEM33 / Fold change vs veh, TMEM33 / RFU, WDR75 / Fold change vs veh, WDR75 / RFU, AHCTF1 / Fold change vs veh, AHCTF1 / RFU, TFRC / Fold change vs veh, TFRC / RFU, ZDHHC17 / Fold change vs veh, ZDHHC17 / RFU, NOM1 / Fold change vs veh, NOM1 / RFU, ARL8B / Fold change vs veh, ARL8B / RFU, ZBTB11 / Fold change vs veh, ZBTB11 / RFU, TAMM41 / Fold change vs veh, TAMM41 / RFU, KIAA1704 /// LOC100996395 / Fold change vs veh, KIAA1704 /// LOC100996395 / RFU, ING1 / Fold change vs veh, ING1 / RFU, TRMT61B / Fold change vs veh, TRMT61B / RFU, FUBP3 / Fold change vs veh, FUBP3 / RFU, TP53 / Fold change vs veh, TP53 / RFU, TNKS2 / Fold change vs veh, TNKS2 / RFU, ZFP14 / Fold change vs veh, ZFP14 / RFU, ACTR2 / Fold change vs veh, ACTR2 / RFU, PPP3R1 / Fold change vs veh, PPP3R1 / RFU, PIK3R1 / Fold change vs veh, PIK3R1 / RFU, HNRNPA1 / Fold change vs veh, HNRNPA1 / RFU, RNF170 / Fold change vs veh, RNF170 / RFU, ZNF28 / Fold change vs veh, ZNF28 / RFU, RNGTT / Fold change vs veh, RNGTT / RFU, OGT / Fold change vs veh, OGT / RFU, BRD1 / Fold change vs veh, BRD1 / RFU, MARS / Fold change vs veh, MARS / RFU, ZNF655 / Fold change vs veh, ZNF655 / RFU, FAHD1 / Fold change vs veh, FAHD1 / RFU, BDP1 / Fold change vs veh, BDP1 / RFU, LRRCC1 / Fold change vs veh, LRRCC1 / RFU, ARID1A / Fold change vs veh, ARID1A / RFU, ZNF146 / Fold change vs veh, ZNF146 / RFU, ZNF330 / Fold change vs veh, ZNF330 / RFU, GPN3 / Fold change vs veh, GPN3 / RFU, C9orf123 / Fold change vs veh, C9orf123 / RFU, N4BP2L2 / Fold change vs veh, N4BP2L2 / RFU, ARFIP1 / Fold change vs veh, ARFIP1 / RFU, FAM179B / Fold change vs veh, FAM179B / RFU, BCL10 / Fold change vs veh, BCL10 / RFU, UHRF1BP1L / Fold change vs veh, UHRF1BP1L / RFU, BET1 / Fold change vs veh, BET1 / RFU, CNOT2 / Fold change vs veh, CNOT2 / RFU, ZNF268 / Fold change vs veh, ZNF268 / Fold change vs veh, ZNF507 / RFU, DGCR2 / Fold change vs veh, DGCR2 / RFU, WDSUB1 / Fold change vs veh, WDSUB1 / Fold change vs veh, HSP90B1 /// MIR3652 / RFU, ADSS / Fold change vs veh, ADSS / RFU, GK / Fold change vs veh, GK / RFU, ZNF148 / Fold change vs veh, ZNF148 / RFU, TAF9 / Fold change vs veh, TAF9 / RFU, SLC1A5 / Fold change vs veh, SLC1A5 / RFU, SLMO2 / Fold change vs veh, SLMO2 / RFU, ABCC4 / Fold change vs veh, ABCC4 / RFU, LOC101060439 /// RAP1B / Fold change vs veh, LOC101060439 /// RAP1B / RFU, RFX7 / Fold change vs veh, RFX7 / RFU, GTPBP10 / Fold change vs veh, GTPBP10 / RFU, CNEP1R1 / Fold change vs veh, CNEP1R1 / RFU, BIVM-ERCC5 /// ERCC5 / Fold change vs veh, BIVM-ERCC5 /// ERCC5 / RFU, ILF3 / Fold change vs veh, ILF3 / RFU 11762660_at / Fold change /veh 11762660_at / RFU VCAN (11757783_s_at) / Fold change /veh VCAN (11757783_s_at) / RFU DDX43 (11728927_at) / Fold change /veh DDX43 (11728927_at) / RFU KRT8 (11758188_x_at) / Fold change /veh KRT8 (11758188_x_at) / RFU NKD1 (11759106_at) / Fold change /veh NKD1 (11759106_at) / RFU SRD5A1 (11742802_a_at) / Fold change /veh SRD5A1 (11742802_a_at) / RFU TPSAB1 /// TPSB2 (11721975_s_at) / Fold change /veh TPSAB1 /// TPSB2 (11721975_s_at) / RFU GSTM3 (11746129_a_at) / Fold change /veh GSTM3 (11746129_a_at) / RFU IL23R (11737362_x_at) / Fold change /veh IL23R (11737362_x_at) / RFU TMEM51 (11727254_a_at) / Fold change /veh TMEM51 (11727254_a_at) / RFU PIWIL2 (11732686_x_at) / Fold change /veh PIWIL2 (11732686_x_at) / RFU ORM1 (11744905_x_at) / Fold change /veh ORM1 (11744905_x_at) / RFU CCDC152 (11743942_at) / Fold change /veh CCDC152 (11743942_at) / RFU ECM1 (11717891_a_at) / Fold change /veh ECM1 (11717891_a_at) / RFU IL23R (11748794_a_at) / Fold change /veh IL23R (11748794_a_at) / RFU TNFAIP8L3 (11732012_x_at) / Fold change /veh TNFAIP8L3 (11732012_x_at) / RFU MBOAT4 (11741988_at) / Fold change /veh MBOAT4 (11741988_at) / RFU 11764193_at / Fold change /veh 11764193_at / RFU TMEM53 (11763286_at) / Fold change /veh TMEM53 (11763286_at) / RFU MAGEB2 (11727129_at) / Fold change /veh MAGEB2 (11727129_at) / RFU TMEM200A (11744735_a_at) / Fold change /veh TMEM200A (11744735_a_at) / RFU CCDC152 (11751479_a_at) / Fold change /veh CCDC152 (11751479_a_at) / RFU FAM211A (11726209_a_at) / Fold change /veh FAM211A (11726209_a_at) / RFU RGS16 (11746705_a_at) / Fold change /veh RGS16 (11746705_a_at) / RFU VCAN (11755009_s_at) / Fold change /veh VCAN (11755009_s_at) / RFU RHOB (11743442_s_at) / Fold change /veh RHOB (11743442_s_at) / RFU RGS16 (11720943_a_at) / Fold change /veh RGS16 (11720943_a_at) / RFU RGS16 (11720944_at) / Fold change /veh RGS16 (11720944_at) / RFU, VPS4B / Fold change vs veh, VPS4B / RFU, CREB1 / Fold change vs veh, CREB1 / RFU, DNAJC13 / Fold change vs veh, DNAJC13 / RFU, GNAQ / Fold change vs veh, GNAQ / RFU, CDK5R1 / Fold change vs veh, CDK5R1 / RFU, ZRANB3 / Fold change vs veh, ZRANB3 / RFU, CUL4A / Fold change vs veh, CUL4A / RFU, CCNY / Fold change vs veh, CCNY / RFU, UFL1 / Fold change vs veh, UFL1 / RFU, COG3 / Fold change vs veh, COG3 / RFU, DIAPH2 / Fold change vs veh, DIAPH2 / RFU, SKA2 / Fold change vs veh, SKA2 / RFU, AFF3 / Fold change vs veh, AFF3 / RFU, LMF1 / Fold change vs veh, LMF1 / RFU, IPO11 / Fold change vs veh, IPO11 / RFU, DFFB / Fold change vs veh, DFFB / RFU, FOXP1 / Fold change vs veh, FOXP1 / RFU, CARD8 / Fold change vs veh, CARD8 / RFU, STRN3 / Fold change vs veh, STRN3 / RFU, ADK / Fold change vs veh, ADK / RFU, RASSF2 / Fold change vs veh, RASSF2 / RFU, WIPF1 / Fold change vs veh, WIPF1 / RFU, LARP1B / Fold change vs veh, LARP1B / RFU, RASA1 / Fold change vs veh, RASA1 / RFU, RB1 / Fold change vs veh, RB1 / RFU, PPFIA1 / Fold change vs veh, PPFIA1 / RFU, MAT2A / Fold change vs veh, MAT2A / RFU, CCT5 / Fold change vs veh, CCT5 / RFU, WDR92 / Fold change vs veh, WDR92 / RFU, CUX1 / Fold change vs veh, CUX1 / RFU, TTC7A / Fold change vs veh, TTC7A / RFU, TMEM135 / Fold change vs veh, TMEM135 / RFU, DEPTOR / Fold change vs veh, DEPTOR / RFU, CPM / Fold change vs veh, CPM / RFU, DNAJB6 / Fold change vs veh, DNAJB6 / RFU, CACNA2D3 / Fold change vs veh, CACNA2D3 / RFU, DTX4 / Fold change vs veh, DTX4 / RFU, TFCP2 / Fold change vs veh, TFCP2 / RFU, GMCL1 /// GMCL1P1 / Fold change vs veh, GMCL1 /// GMCL1P1 / RFU, AEBP2 / Fold change vs veh, AEBP2 / RFU, SNHG1 /// SNORD22 /// SNORD25 /// SNORD26 /// SNORD27 /// SNORD28 /// SNORD29 /// SNORD31 / Fold change vs veh, SNHG1 /// SNORD22 /// SNORD25 /// SNORD26 /// SNORD27 /// SNORD28 /// SNORD29 /// SNORD31 / Fold change (Aza/veh), C12orf56 (ProbeSet 11735607_a_at) / Fold change (ACY-1035/veh), C12orf56 (ProbeSet 11735607_a_at) / Fold change (Aza/veh), FGFR1OP (ProbeSet 11751329_s_at) / Fold change (ACY-1035/veh), FGFR1OP (ProbeSet 11751329_s_at) / Fold change (Aza/veh), VPS36 (ProbeSet 11739960_a_at) / Fold change (ACY-1035/veh), VPS36 (ProbeSet 11739960_a_at) / RFU SYPL1 (11715823_x_at) / Fold change /veh SYPL1 (11715823_x_at) / RFU IGFBP7 (11715501_s_at) / Fold change /veh IGFBP7 (11715501_s_at) / RFU REEP3 (11722064_at) / Fold change /veh REEP3 (11722064_at) / RFU IGLL1 (11728026_x_at) / Fold change /veh IGLL1 (11728026_x_at): dose or concentration left out as unconfirmed. Conditions: ProbeSet 11725902_s_at; LIST D.

`Nc1ccc(-c2cccs2)cc1NC(=O)c1ccc2c(c1)cc(C1CC1)n2CCN1CCOCC1` [ACY-1035]: the “Fold change vs veh, TMEM135” value worked out at 0.99.
